Data on 1 substance can be found in patent US7919577B2, “Adrenocorticotropic hormone analogs and related methods” (Colorado Seminary, priority 2004, dated 2011).

Data set [1] concerns dexamethasone-suppressed male FVB/N mice. The data set is described as follows: in vivo Serum Corticosteroid Inhibition Assay (Example 2). Also noted: species or system mouse. The note with it: mACTH(1-24) alone 120 minutes after dexamethasone, blood one hour later. As to the method:
The in vivo Serum Corticosteroid Inhibition Assay can include sequential administration of the test compound and the corticosteroid-producing compound by the following steps: first, an agent to suppress endogenous ACTH production was administered to a mouse subject, such as an intraperitoneal injection of dexamethasone; second, after waiting a suitable period of time for suppression of endogenous ACTH production (e.g., 1.5-2.0 hours), a test compound was administered to the mouse by a suitable method, such as intraperitoneal injection; third, after waiting a suitable period of time (e.g., 1 hour) for action of the test compound, a compound with corticosteroid-producing activity can be administered to the mouse by a suitable method, such as intraperitoneal injection; and fourth, after waiting a suitable period of time for the biological activity of both administered compounds to occur (e.g., 1 hour), a blood sample was taken from the subject and the level of serum corticosterone was determined by a suitable method, such as a competitive radioimmunoassay using ^125I RIA kit (ICN, Costa Mesa, Calif.). Optionally, steps two and three can be reversed (administering the corticosteroid-producing compound first, followed by administration of the test compound). The in vivo Serum Corticosteroid Inhibition Assay can also include co-administration of the test compound and the corticosteroid-producing compound by the following steps: first, an agent to suppress endogenous ACTH production was administered to a mouse subject, such as an intraperitoneal injection of dexamethasone; second, after waiting a suitable period of time for suppression of endogenous ACTH production (e.g., 1.5-2.0 hours), the corticosteroid-producing compound and a test compound were co-administered to the mouse by a suitable method, such as intraperitoneal injection; and third, after waiting a suitable period of time for the biological activity of both administered compounds to occur (e.g., 1 hour), a blood sample was taken from the subject and the level of serum corticosterone was determined by a suitable method, such as a competitive radioimmunoassay using ^125I RIA kit (ICN, Costa Mesa, Calif.). Also, in some embodiments, the first step in any in vivo Serum Corticosteroid Inhibition Assay can be replaced by a measurement of the initial endogenous corticosteroid or corticosteroid level in the blood of the subject in the manner of step four, instead of administering the agent to suppress ACTH production. Example 2 describes murine in vivo Serum Corticosteroid Inhibition Assays in detail.
A series of separate in vivo Serum Corticosteroid Inhibition Assays were performed to identify ACTH analogs that inhibit ACTH adrenal hormone production in vivo. The serum corticosterone levels of dexamethasone-suppressed mice were measured as described in Example 2 after administration of (1) ACTH (corticosteroid-producing compound), (2) an ACTH analog (test compound) followed by subsequent administration of ACTH, (3) a combination of ACTH and the ACTH analog and (4) the ACTH analog alone.
The in vivo Serum Corticosteroid Inhibition Assay was performed according the following method. The ACTH analog test compounds, such as those showing low activities in Example 1, were tested for their abilities to inhibit adrenal hormone production induced by unmodified ACTH.
First, two to three month-old male FVB/N mice from our colony, five per group, were injected intraperitoneally with dexamethasone (0.4 mg/0.1 ml PBS per mouse; Sigma, St. Louis, Mo.) to suppress their endogenous ACTH production.
Second, ninety to one hundred twenty minutes later, animals were injected subcutaneously between the shoulder blades with wild type ACTH and/or test ACTH analog peptides (1 μg/0.1 mL PBS/0.5% BSA) or with vehicle alone (0.1 mL PBS/0.5% BSA). […]

In data set [2] the target is T1, adrenal ACTH receptors such as MC-2R (explanted adrenal membrane) (Mus musculus, UniProt Q64326+Q9D159).
T1 construct: the adrenal halves were macerated or otherwise dissociated using Dounce Homogenizer to form a membrane fraction; from tissue; host or cells: mouse adrenal glands (explanted, homogenised to a membrane fraction)
T1 sequence (Q64326 whole entry): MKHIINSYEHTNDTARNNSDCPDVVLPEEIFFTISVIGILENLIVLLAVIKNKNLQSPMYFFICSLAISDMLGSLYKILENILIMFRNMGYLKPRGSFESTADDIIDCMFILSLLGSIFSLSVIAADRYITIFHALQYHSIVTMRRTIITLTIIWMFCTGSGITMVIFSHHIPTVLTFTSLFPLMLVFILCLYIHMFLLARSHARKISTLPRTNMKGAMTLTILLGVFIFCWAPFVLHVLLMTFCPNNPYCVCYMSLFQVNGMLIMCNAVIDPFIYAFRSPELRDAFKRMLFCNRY
T1 sequence (Q9D159 whole entry): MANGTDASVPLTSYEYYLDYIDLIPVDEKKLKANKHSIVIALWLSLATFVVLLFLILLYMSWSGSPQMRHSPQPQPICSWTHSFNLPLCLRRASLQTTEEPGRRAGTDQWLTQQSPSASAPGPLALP
The data set is described as follows: in vitro Serum-free Adrenal Competitive Binding Assay (Example 3). The conditions noted are these: cold peptide at 10 nM, 100 nM, 1000 nM; CPM; FIG. 3. An excerpt:
ACTH analog compounds that bind to adrenal membrane with a greater affinity than endogenous unmodified ACTH, and are able to displace unmodified ACTH can be identified using an in vitro Serum-free Adrenal Competitive Binding Assay (Example 3). […] A higher CPM level indicates the presence of greater amounts of the radiolabelled compound. […] Column 220 indicates the level of radio-labeled unmodified mACTH(1-24) detected after combining the explanted adrenal membrane with only the radio-labeled mACTH(1-24) for 2 hours (no competitive binding). Columns 230, 240, and 250 show the results of competitive binding assays for binding of non-radio-labeled (“cold”) mACTH(1-24) to displace the radio-labeled mACTH(1-24) from the explanted adrenal membrane (measured in column 220) by competitive binding to receptors such as MC-2R on the adrenal membrane. […]
ACTH analogs with the ability to bind adrenal receptors with a greater affinity than compounds with known adrenal binding activity (preferably ACTH) can also be identified by performing an in vitro Adrenal Competitive Binding Assay, whereby measurement of the reduction in the amount of the radiolabelled adrenal-binding compound (e.g., ACTH) is measured at various concentrations of non-radio-labeled ACTH analog test compound in a medium containing explanted adrenal membrane. […]

The conditions of data set [3]: cited from earlier work.

Take “N-Ser^1-Tyr-Ser-Met-Glu^5-His-Phe-Arg-Trp-Gly^10-Lys-Pro-Val-Gly-Lys^15-Lys-Arg-Arg-Pro-Val^20-Lys-Val-Tyr-Pro-Ac [mACTH(1-24), reference compound]”: the “serum corticosterone at 180 minutes” value in data set [1] and in data set [1] (listed as ACTH) was 500 ± 76 ng/mL each time. The “displacement of radio-labeled mACTH(1-24) from explanted adrenal membrane” value in data set [2] is reported as “displacement of the radio-labeled mACTH(1-24)”. Besides, in data set [3], the “half life in blood” value is given as “less than 20 minutes”.
